Laboratory results taken from paper PMC11645656, “MRGPRX4 mediates phospho-drug associated pruritus in a humanized mouse model” (Science translational medicine, 2024).
Several values for one entry are separate records, joined by “and”; a condition that tells them apart may be missing. Equal values may be shown once.

How the values were obtained:
[1] = target: MRGPRX4 WT (S83) (Homo sapiens, UniProt Q96LA9, L83S); assay: PRESTO-Tango β-arrestin recruitment assay, HTLA cells stably expressing WT (S83) MRGPRX4; format: cell-based; parameters: expressed in transfected cells; conditions: for PRESTO-Tango response (fig. S1), single replicate: HTLA::MRGPRX4; for fig. S7 response (raw signal), concentration-response: WT, single replicate
[2] = target: MRGPRX4 S83L (L83) (Homo sapiens, UniProt Q96LA9); assay: Calcium mobilization assay (FLIPR), S83L MRGPRX4 transiently expressed in HEK293T cells; format: cell-based; parameters: expressed in transfected cells; host or cells: HEK293T, transient; conditions: for Calcium mobilization response (Fig. 4D dose-response): each cell one replicate
In short: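 HEK293T cells were transfected one day earlier with WT (S83) or S83L MRGPRX4, loaded with Calcium 5 dye in HBSS/20 mM HEPES pH 7.4 for 1 h at 37 °C, and read on Flexstation-3. Response was maximum minus baseline; EC50 from 4PL fit, triplicate wells, independent experiments.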

Sequence of MRGPRX4 WT (S83) (Q96LA9 whole entry L83S): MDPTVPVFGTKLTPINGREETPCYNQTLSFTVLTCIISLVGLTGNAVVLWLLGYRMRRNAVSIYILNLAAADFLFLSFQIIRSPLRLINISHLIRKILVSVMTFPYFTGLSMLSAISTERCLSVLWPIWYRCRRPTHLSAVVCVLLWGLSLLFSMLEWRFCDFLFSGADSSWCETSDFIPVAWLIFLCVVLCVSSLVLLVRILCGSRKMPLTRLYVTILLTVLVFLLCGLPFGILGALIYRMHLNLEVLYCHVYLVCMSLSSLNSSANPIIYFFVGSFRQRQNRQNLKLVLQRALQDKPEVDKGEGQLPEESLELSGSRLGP
Sequence of MRGPRX4 S83L (L83) (Q96LA9 whole entry, stated change not applied): as the sequence (Q96LA9 whole entry L83S) above, with S83L counted along it

Compound: CC(C)c1cccc(C(C)C)c1OCOP(=O)(O)O [Fospropofol]
- PRESTO-Tango response (fig. S1), single replicate ([1]; concentration 1.95e-9 M): 0.05347 and 0.06522 and 0.05931 and 0.2207 and 0.1773 and 0.1674 and 0.1338 and 0.1758 and 0.0967
- PRESTO-Tango response (fig. S1), single replicate ([1]; concentration 3.91e-9 M): 0.1053 and 0.08982 and 0.09599 and 0.3062 and 0.2141 and 0.1584 and 0.1973 and 0.1505 and 0.1812
- PRESTO-Tango response (fig. S1), single replicate ([1]; concentration 7.81e-9 M): 0.09268 and 0.116 and 0.1017 and 0.3688 and 0.253 and 0.2802 and 0.1468 and 0.2156 and 0.1585
- PRESTO-Tango response (fig. S1), single replicate ([1]; concentration 1.56e-8 M): 0.2132 and 0.2887 and 0.213 and 0.6375 and 0.7915 and 0.6641 and 0.3649 and 0.3666 and 0.1947
- PRESTO-Tango response (fig. S1), single replicate ([1]; concentration 3.13e-8 M): 0.293 and 0.3131 and 0.2408 and 1.844 and 1.563 and 1.804 and 0.7421 and 0.6696 and 0.4151
- PRESTO-Tango response (fig. S1), single replicate ([1]; concentration 6.25e-8 M): 0.5602 and 0.5719 and 0.4853 and 3.825 and 3.698 and 3.023 and 1.231 and 1.143 and 1.136
- PRESTO-Tango response (fig. S1), single replicate ([1]; concentration 1.25e-7 M): 0.9649 and 0.9632 and 0.8205 and 5.958 and 5.765 and 4.1962 and 2.249 and 2.15 and 1.832
- PRESTO-Tango response (fig. S1), single replicate ([1]; concentration 2.5e-7 M): 1.521 and 1.3 and 1.661 and 7.755 and 5.82 and 6.8361 and 3.176 and 3.046 and 2.687
- PRESTO-Tango response (fig. S1), single replicate ([1]; concentration 5e-7 M): 1.9 and 1.632 and 1.827 and 8.423 and 7.014 and 7.51 and 3.752 and 3.569 and 3.3596
- PRESTO-Tango response (fig. S1), single replicate ([1]; concentration 1e-6 M): 2.509 and 2.322 and 1.947 and 8.611 and 7.367 and 6.973 and 3.852 and 4.064 and 3.742
- PRESTO-Tango response (fig. S1), single replicate ([1]; concentration 2e-6 M): 2.446 and 2.467 and 2.134 and 8.437 and 7.773 and 6.136 and 3.188 and 3.088 and 4.194
- fig. S7 response (raw signal), concentration-response ([1]; 1.95e-9 M): 16738 and 13375 and 17578.5 and 9669.59 and 5346.95 and 6521.98 and 5931.28 and 22070.2 and 17734.5
- fig. S7 response (raw signal), concentration-response ([1]; 3.91e-9 M): 15842.1 and 19726.2 and 15050.8 and 18116.6 and 10530.6 and 8981.76 and 9599.26 and 30619.8 and 21413.5
- fig. S7 response (raw signal), concentration-response ([1]; 7.81e-9 M): 28015.3 and 14682.6 and 21560.1 and 15853.2 and 9267.54 and 11599.7 and 10170.8 and 36884.4 and 25297.6
- fig. S7 response (raw signal), concentration-response ([1]; 1.56e-8 M): 66409.6 and 36485.8 and 36662.8 and 19473.7 and 21324 and 28869.2 and 21303.6 and 63745.9 and 79152.7
- fig. S7 response (raw signal), concentration-response ([1]; 3.13e-8 M): 180426 and 74208.2 and 66960.2 and 41510.5 and 29299.2 and 31309.9 and 24081.1 and 184359 and 156258
- fig. S7 response (raw signal), concentration-response ([1]; 6.25e-8 M): 302326 and 123092 and 114256 and 113554 and 56022.5 and 57189.8 and 48533.4 and 382536 and 369774
- fig. S7 response (raw signal), concentration-response ([1]; 1.25e-7 M): 419620 and 224898 and 215037 and 183215 and 96490.1 and 96321.7 and 82049.1 and 595774 and 576456
- fig. S7 response (raw signal), concentration-response ([1]; 2.5e-7 M): 683610 and 317574 and 304633 and 268745 and 152100 and 129974 and 166066 and 775519 and 581976
- fig. S7 response (raw signal), concentration-response ([1]; 5e-7 M): 751045 and 375202 and 356942 and 335960 and 190041 and 163176 and 182733 and 842325 and 701403
- fig. S7 response (raw signal), concentration-response ([1]; 1e-6 M): 697307 and 385223 and 406436 and 374152 and 250882 and 232214 and 194658 and 861126 and 736707
- fig. S7 response (raw signal), concentration-response ([1]; 2e-6 M): 613596 and 318811 and 308756 and 419448 and 244609 and 246673 and 213444 and 843724 and 777268
- Calcium mobilization response (Fig. 4D dose-response) ([2]; 1.52e-8 M): 30.9484
- Calcium mobilization response (Fig. 4D dose-response) ([2]; 0.0001 M): 92.0965
- EC50 ([2]; EC50s (each well represents individual experiment), Fig. 4E, unit not in the head, taken from Concentration (M) of the sheet and pEC50 [M] of Fig. 4E): 1.79e-07 M and 1.3e-07 M and 1.88e-07 M
